In brackets after ≈: the same amount, converted by molar mass.
How the values were obtained:
[1] = Clearance in rat at 1 mg/kg, iv; format: ADME, organism-based; conditions: in vivo
[2] = Half life in rat at 1 mg/kg, iv; format: ADME, organism-based; conditions: in vivo
[3] = Half life in human liver microsomes; format: ADME, microsome
[4] = molecular target: Voltage-gated inwardly rectifying potassium channel KCNH2 (Homo sapiens, UniProt Q12809); experiment: Inhibition of human ERG
[5] = Thermodynamic aqueous solubility of the compound in pH 2.2; format: physicochemical; conditions: buffer, read-out: Therm_solubility
[6] = Unbound plasma concentration in human; format: ADME, organism-based
[7] = Unbound plasma concentration in rat; format: ADME, organism-based
[8] = Thermodynamic aqueous solubility of the compound in pH 7.2; format: physicochemical; conditions: buffer, read-out: Therm_solubility
[9] = Unbound plasma concentration in dog; format: ADME, organism-based, Canis lupus familiaris
[10] = Half life in dog liver microsomes; format: ADME, Canis lupus familiaris, microsome
[11] = molecular target: CaM kinase II delta/gamma (Rattus norvegicus, UniProt P11730+P15791); experiment: Inhibition of CaMK2gamma/delta in neonatal rat ventricular myocytes assessed as phospholamban phosphorylation after 4 hrs by Hoechst 33342 fluorescence based assay; format: cell-based
CaM kinase II alpha/beta = CaM kinase II alpha/beta (Rattus norvegicus, UniProt P08413+P11275); experiment: Inhibition of CaMK2alpha/beta in neonatal rat cortical neurons assessed as phospholamban phosphorylation after 4 hrs by Hoechst 33342 fluorescence-based assay; format: protein-complex assay
[12] = Half life in rat liver microsomes; format: ADME, microsome
[13] = Volume of distribution at steady state in rat at 1 mg/kg, iv; format: ADME, organism-based; conditions: in vivo, read-out: Vdss
Cytochrome P450 2C19 = Cytochrome P450 2C19 (Homo sapiens, UniProt P33261); experiment: Inhibition of CYP2C19 (unknown origin); format: ADME
Cytochrome P450 1A2 = molecular target: T1, Cytochrome P450 1A2 (Homo sapiens, UniProt P05177); experiment: Inhibition of CYP1A2 (unknown origin); format: ADME
T1 sequence (P05177 whole entry): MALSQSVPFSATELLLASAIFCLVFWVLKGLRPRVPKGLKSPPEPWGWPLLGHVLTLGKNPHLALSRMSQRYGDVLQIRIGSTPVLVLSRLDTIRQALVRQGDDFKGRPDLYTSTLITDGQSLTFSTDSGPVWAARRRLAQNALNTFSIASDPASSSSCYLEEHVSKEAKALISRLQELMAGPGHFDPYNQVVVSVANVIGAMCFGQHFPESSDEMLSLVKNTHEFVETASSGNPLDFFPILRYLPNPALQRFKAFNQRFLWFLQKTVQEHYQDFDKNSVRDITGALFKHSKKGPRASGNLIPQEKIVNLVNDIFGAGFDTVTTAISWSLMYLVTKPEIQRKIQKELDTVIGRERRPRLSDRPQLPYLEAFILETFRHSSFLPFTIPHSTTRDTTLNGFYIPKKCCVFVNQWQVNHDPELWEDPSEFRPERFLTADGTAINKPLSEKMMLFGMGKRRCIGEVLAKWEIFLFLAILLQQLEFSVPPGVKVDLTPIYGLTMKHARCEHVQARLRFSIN

[14] = AUC (0 to infinity) in rat at 5 mg/kg, po; format: ADME, organism-based; design: dose 5 mg/kg, time infinity, route oral; conditions: in vivo
Cytochrome P450 2C9 = Cytochrome P450 2C9 (Homo sapiens, UniProt P11712); experiment: Inhibition of CYP2C9 (unknown origin); format: ADME
Cytochrome P450 2D6 = Cytochrome P450 2D6 (Homo sapiens, UniProt P10635); experiment: Inhibition of CYP2D6 (unknown origin); format: ADME
Cytochrome P450 3A4 = Cytochrome P450 3A4 (Homo sapiens, UniProt P08684); experiment: Inhibition of CYP3A4 (unknown origin); format: ADME
[15] = Oral bioavailability in rat at 5 mg/kg; format: ADME, organism-based; conditions: in vivo

Sequence of Voltage-gated inwardly rectifying potassium channel KCNH2 (Q12809 whole entry): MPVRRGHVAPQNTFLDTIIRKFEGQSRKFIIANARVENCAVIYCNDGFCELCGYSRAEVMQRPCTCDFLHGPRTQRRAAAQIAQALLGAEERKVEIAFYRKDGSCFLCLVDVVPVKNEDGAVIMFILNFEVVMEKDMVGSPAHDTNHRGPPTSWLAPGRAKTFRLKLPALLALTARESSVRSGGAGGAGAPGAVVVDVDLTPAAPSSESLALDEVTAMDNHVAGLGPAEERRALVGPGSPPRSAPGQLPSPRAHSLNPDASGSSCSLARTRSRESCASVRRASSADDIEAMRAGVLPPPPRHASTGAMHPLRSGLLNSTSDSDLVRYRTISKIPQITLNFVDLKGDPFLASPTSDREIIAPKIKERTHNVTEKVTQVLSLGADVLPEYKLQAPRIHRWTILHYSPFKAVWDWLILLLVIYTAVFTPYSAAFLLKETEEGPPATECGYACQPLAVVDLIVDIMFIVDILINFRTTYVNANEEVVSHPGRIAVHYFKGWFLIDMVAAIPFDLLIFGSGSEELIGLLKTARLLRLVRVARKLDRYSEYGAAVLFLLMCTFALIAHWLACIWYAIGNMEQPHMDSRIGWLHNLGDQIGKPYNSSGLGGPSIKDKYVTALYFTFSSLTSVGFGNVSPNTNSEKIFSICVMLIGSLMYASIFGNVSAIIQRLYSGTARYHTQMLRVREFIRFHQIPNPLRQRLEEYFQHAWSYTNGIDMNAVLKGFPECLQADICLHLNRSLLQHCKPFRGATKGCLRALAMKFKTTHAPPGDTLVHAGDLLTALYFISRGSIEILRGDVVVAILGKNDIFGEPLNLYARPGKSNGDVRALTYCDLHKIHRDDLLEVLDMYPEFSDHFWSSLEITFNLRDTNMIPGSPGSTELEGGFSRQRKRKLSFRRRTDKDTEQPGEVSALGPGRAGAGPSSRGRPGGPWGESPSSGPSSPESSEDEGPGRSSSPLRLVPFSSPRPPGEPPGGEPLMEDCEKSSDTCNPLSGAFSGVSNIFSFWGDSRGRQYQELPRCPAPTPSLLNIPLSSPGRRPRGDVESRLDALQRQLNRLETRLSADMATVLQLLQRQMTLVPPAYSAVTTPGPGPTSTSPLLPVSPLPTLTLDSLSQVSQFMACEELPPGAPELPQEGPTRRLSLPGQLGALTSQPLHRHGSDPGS
Sequence of CaM kinase II alpha/beta (P11275 whole entry): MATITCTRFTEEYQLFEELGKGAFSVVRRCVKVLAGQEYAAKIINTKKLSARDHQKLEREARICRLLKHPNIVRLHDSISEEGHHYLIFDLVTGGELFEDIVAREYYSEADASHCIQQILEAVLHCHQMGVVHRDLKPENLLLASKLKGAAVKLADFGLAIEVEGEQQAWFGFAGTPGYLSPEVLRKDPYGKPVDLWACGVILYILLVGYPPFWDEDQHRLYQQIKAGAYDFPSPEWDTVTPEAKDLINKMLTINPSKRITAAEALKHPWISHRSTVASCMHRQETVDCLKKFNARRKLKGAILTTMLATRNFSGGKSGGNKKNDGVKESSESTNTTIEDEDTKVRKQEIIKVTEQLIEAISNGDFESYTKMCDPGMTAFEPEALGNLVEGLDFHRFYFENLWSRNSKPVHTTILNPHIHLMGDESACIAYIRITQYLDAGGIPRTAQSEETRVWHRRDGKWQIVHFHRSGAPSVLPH
Sequence of CaM kinase II alpha/beta (P08413 whole entry): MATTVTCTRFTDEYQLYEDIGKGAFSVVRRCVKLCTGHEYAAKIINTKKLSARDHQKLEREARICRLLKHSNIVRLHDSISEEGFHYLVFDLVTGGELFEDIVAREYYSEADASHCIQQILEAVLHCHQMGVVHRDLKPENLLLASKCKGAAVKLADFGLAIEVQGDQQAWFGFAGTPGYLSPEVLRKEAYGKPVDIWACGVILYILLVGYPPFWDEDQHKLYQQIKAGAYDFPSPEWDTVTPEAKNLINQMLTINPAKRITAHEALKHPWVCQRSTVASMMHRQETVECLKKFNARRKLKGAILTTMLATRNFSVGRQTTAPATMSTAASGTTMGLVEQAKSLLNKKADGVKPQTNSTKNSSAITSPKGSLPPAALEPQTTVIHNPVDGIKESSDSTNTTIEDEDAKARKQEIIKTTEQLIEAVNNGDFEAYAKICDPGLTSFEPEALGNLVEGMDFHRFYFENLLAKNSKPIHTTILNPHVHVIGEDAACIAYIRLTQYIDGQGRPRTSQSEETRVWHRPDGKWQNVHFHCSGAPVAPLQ
Sequence of CaM kinase II delta/gamma (P15791 whole entry): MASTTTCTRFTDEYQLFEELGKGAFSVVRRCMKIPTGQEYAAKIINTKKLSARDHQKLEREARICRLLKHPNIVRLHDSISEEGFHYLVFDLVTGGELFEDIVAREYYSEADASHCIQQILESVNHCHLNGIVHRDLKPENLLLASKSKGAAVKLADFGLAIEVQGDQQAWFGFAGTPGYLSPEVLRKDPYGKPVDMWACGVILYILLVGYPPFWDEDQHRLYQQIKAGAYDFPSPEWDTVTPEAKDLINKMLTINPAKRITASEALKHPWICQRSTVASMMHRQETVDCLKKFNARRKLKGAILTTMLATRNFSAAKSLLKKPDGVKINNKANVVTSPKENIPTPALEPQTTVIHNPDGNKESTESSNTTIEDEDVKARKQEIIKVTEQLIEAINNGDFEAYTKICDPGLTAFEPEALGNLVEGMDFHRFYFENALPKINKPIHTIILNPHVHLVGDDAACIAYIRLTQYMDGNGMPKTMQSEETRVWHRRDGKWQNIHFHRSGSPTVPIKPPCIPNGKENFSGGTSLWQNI
Sequence of CaM kinase II delta/gamma (P11730 whole entry): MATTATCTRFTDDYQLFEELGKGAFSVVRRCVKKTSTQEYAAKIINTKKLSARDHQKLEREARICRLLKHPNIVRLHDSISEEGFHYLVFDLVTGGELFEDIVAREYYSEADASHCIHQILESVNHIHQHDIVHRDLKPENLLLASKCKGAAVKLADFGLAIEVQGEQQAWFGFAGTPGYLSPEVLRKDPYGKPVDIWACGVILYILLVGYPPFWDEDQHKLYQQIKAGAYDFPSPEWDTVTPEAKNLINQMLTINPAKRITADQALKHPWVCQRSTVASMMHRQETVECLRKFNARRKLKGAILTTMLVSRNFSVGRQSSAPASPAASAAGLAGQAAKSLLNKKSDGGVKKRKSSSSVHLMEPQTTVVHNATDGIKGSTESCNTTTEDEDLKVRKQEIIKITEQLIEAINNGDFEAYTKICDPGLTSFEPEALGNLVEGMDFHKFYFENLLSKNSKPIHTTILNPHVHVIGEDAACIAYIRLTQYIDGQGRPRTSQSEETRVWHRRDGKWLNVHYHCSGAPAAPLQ
Sequence of Cytochrome P450 2C9 (P11712 whole entry): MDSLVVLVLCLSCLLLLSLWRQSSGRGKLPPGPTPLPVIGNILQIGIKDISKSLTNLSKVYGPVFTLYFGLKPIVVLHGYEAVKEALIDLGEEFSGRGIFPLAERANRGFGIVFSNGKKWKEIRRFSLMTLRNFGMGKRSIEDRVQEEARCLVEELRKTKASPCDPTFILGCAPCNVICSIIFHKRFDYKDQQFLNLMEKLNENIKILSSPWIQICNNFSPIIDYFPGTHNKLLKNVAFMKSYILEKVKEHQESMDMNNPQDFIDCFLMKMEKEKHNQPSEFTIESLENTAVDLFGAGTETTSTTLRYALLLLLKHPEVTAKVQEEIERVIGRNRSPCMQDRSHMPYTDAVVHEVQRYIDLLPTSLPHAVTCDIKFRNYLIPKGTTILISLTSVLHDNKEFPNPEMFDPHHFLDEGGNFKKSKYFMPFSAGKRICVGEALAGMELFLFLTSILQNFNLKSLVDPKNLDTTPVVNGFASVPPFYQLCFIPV
Sequence of Cytochrome P450 2D6 (P10635 whole entry): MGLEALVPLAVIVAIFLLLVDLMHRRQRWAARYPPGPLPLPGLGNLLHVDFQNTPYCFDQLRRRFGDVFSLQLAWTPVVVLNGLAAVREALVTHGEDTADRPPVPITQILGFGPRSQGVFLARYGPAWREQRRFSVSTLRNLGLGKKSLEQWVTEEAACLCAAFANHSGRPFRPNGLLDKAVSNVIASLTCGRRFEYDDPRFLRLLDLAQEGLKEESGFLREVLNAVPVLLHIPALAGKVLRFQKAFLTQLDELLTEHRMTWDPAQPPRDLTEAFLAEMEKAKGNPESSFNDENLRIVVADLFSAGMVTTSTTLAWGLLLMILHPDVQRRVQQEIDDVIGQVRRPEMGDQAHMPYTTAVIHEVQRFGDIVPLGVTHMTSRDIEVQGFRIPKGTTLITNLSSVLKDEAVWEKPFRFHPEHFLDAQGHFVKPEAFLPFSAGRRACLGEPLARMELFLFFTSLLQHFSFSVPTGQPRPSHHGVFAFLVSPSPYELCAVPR
Sequence of Cytochrome P450 3A4 (P08684 whole entry): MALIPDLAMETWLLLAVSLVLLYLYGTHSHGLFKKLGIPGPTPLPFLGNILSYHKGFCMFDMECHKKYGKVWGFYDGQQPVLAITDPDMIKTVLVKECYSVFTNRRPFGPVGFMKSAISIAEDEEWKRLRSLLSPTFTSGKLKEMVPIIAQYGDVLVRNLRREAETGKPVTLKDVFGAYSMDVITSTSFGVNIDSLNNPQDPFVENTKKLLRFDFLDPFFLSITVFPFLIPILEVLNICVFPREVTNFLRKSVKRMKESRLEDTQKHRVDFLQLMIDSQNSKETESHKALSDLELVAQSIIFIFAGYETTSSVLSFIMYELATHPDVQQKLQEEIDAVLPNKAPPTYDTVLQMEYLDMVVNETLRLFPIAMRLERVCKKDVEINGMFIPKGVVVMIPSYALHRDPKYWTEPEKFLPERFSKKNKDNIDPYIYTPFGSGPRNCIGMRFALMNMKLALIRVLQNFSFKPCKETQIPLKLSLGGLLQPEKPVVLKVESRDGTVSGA

Row | clearance [1] | half-life [2] | half-life [3] | solubility thermodynamic [5] | fraction unbound [6] | fraction unbound [7] | solubility thermodynamic [8] | fraction unbound [9] | half-life [10] | EC50 [11] | EC50 (CaM kinase II alpha/beta) | half-life [12] | Vd [13] | Structure (SMILES) | IC50 [4] | further results
1 | 80.8 mL/min/kg | 353 min | 58 min | 15000 µg/mL (≈ 29.7 mM) | 0.177 | 0.363 | 8400 µg/mL (≈ 16.6 mM) | 0.291 | 27 min | 6.2 nM | 274 nM | 48 min | 22.1 L/kg | CCN(CC)[C@@H](C)CNC(=O)c1cc(-c2cnn3ccc(-c4cccs4)nc23)nc(N2CC(O)C2)c1 | > 30000 nM | –
2 | 25.5 mL/min/kg | 258 min | 62 min | > 20000 µg/mL | 0.071 | 0.151 | 200 µg/mL (≈ 0.385 mM) | 0.159 | 43 min | 7.4 nM | 120 nM | 61 min | 7.34 L/kg | CCN(CC)[C@@H](C)CNC(=O)c1cc(-c2cnn3ccc(-c4cccs4)nc23)nc(N2CC(OC)C2)c1 | – | IC50 (Cytochrome P450 2C19): > 25000 nM; IC50 (Cytochrome P450 1A2): > 25000 nM; AUC(0-inf) [14]: 3 µM·h; IC50 (Cytochrome P450 2C9): > 25000 nM; IC50 (Cytochrome P450 2D6): > 25000 nM; IC50 (Cytochrome P450 3A4): > 25000 nM; bioavailability [15]: 73%
3 | – | – | – | – | – | – | – | – | – | – | – | – | – | CCc1cc(C(=O)NC[C@H](C)N(CC)CC)cc(-c2cnn3ccc(-c4cccs4)nc23)n1 | 3280 nM | –
4 | – | – | – | – | – | – | – | – | – | – | – | – | – | CCN(CC)CCNC(=O)c1ccnc(-c2cnn3ccc(-c4cccs4)nc23)c1 | 1170 nM | –
5 | – | – | – | – | – | – | – | – | – | – | – | – | – | CCN(CC)[C@@H](C)CNC(=O)c1ccnc(-c2cnn3ccc(-c4cccs4)nc23)c1 | 718 nM | –

Reference: ChEMBL document CHEMBL4184081, “Discovery of potent and selective inhibitors of calmodulin-dependent kinase II (CaMKII)” (Bioorg Med Chem Lett, 2018)
